US8247552B2, “Analogs of dehydrophenylahistins and their therapeutic use” (Nereus Pharmaceuticals, Inc., priority 2002, dated 2012)
Converted amounts (≈) assume the structure as drawn. Where two headings read alike, the source gives them in different places.

Experiments:
[1] = tested on: N202 mammary tumor vasculature; assay: Murine syngeneic pseudo-orthotopic breast cancer model, dorsal skinflap chamber, vascular targeting
Source text: A murine syngeneic “pseudo-orthotopic” breast cancer model was used to address these issues. […] To create the “pseudo-orthotopic milieu,” the coverslip of a dorsal skinflap chamber was removed and small pieces of mammary fatpad from donor mice were implanted into the chamber. On top of the fatpad graft, tumor spheroids containing N202 mammary tumor cells transduced with Histone (H2B)-green fluorescent protein (GFP) were applied. The use of H2B-GFP transduced cells allows for visualizing tumor growth and monitoring mitosis and apoptosis.
Fluorescence video microscopy allows for the relatively non-invasive study of tumor microcirculation in conscious mice.
Tumor area, blood flow rate, and vascular density within and surrounding the tumor were visualized. Real-time observations were recorded at various time-points using still photos and video microscopy.

[2] = tested on: P22 rat sarcoma tumor blood flow; assay: Blood flow in the P22 rat sarcoma model with 125I-IAP; type: in vivo; settings: 15 mg/kg IP
Procedure: In contrast, blood flow in non-tumor tissues was affected to a much lesser extent at 1 hour (see FIG. 35).

P22 rat sarcoma = assay: Tumor necrosis in the P22 rat sarcoma model; type: in vivo; settings: 7.5 and 15 mg/kg IP, 24 hours post-dose
Source text: “A dose-escalation study of the novel vascular-targeting agent, ZD6126, in patients with solid tumors,” Proc Am Soc Clin Oncol 2002; 21:abstract 438; each of which is hereby incorporated by reference in its entirety.

[3] = tested on: MCF7 cells (GFP-alpha-tubulin); assay: Microtubule dynamic instability in living MCF7 cells (time-lapse microscopy); type: cell-based, human; settings: concentrations effecting 25% or 50% of maximal mitotic block
HuVEC cells = assay: Microtubule (tubulin) depolymerization, α-tubulin staining; settings: for microtubule depolymerization in HuVEC cells: 2 μM, thirty minutes exposure
Procedure: The plates were returned to the incubator for 2 days.
20 mM stock solutions of compounds were prepared in 100% DMSO and stored at −80° C. 400× concentrated dilutions of the compounds were prepared in 100% DMSO. 5 μl volumes of the dilutions were added to individual wells resulting in a final concentration of 20 nM. […] The plates were returned to the incubator for 30 minutes.
The cells were rinsed in dPBS before fixation in 10% (v/v) neutral buffered formalin for 10 minutes at room temperature. Following fixation, α-tubulin was visualized by indirect immunofluorescence. Specifically, the cells were permeabilized in 0.2% (v/v) triton X-100/dPBS for 10 minutes. The cells were washed prior to transferring the coverslips to a humidified chamber, the coverslips were blocked for two hours in antibody buffer [2% (w/v) BSA/0.1% (v/v) Tween 20/dPBS]. The coverslips were incubated with 50 μl of 0.1 μg/ml mouse α-tubulin (Molecular Probes) in antibody buffer for 1 hour before washing and incubation with 50 μl of 1 μg/ml goat anti-mouse FITC (Jackson ImmunoResearch Laboratories) for one hour in the dark. Finally, the cells were washed and treated with 2 μg/ml DAPI (Molecular Probes) for 10 minutes before rinsing in H2O and mounting with Vectashield (Vector Labs) mounting media. The cells were imaged using a 60× oil immersion objective on an upright microscope (Olympus BX51). The images were digitally captured using a CCD camera and Magnafire 2.0 software (Olympus). Post image processing was performed in Photoshop Elements 2.0 (Adobe) and in Microsoft Powerpoint.
Human umbilical vein endothelial cells (HuVECs; Cambrex CC2519A) were maintained at subconfluent densities in EGM-2 (Cambrex) media. […] The plates were returned to the incubator for 2 days.
Stock (20 mM) solutions of the test compounds were prepared in 100% DMSO. 400× concentrated dilutions of the compounds were prepared in 100% DMSO. 5 μl volumes of the dilutions were added to individual wells resulting in a final concentration of 200 nM. […] The plates were returned to the incubator for 30 minutes.
The cells were rinsed in dPBS before fixation in 10% (v/v) neutral buffered formalin for 10 minutes at room temperature. Following fixation, α-tubulin was visualized by indirect immunofluorescence. Specifically, the cells were permeabilized in 0.2% (v/v) triton X-100/dPBS for 10 minutes. The cells were washed prior to transferring the coverslips to a humidified chamber, the coverslips were blocked for two hours in antibody buffer (2% (w/v) BSA/0.1% (v/v) Tween 20/dPBS). The coverslips were incubated with 50 μl of 0.1 μg/ml mouse α-tubulin (Molecular Probes) in antibody buffer for 1 hour before washing and incubation with 50 μl of 1 μg/ml goat anti-mouse FITC (Jackson ImmunoResearch Laboratories) for one hour in the dark. Finally, the cells were washed and treated with 2 μg/ml DAPI (Molecular Probes) for 10 minutes before rinsing in H2O and mounting with Vectashield (Vector Labs) mounting media. The cells were imaged using a 60× oil immersion objective on an upright microscope (Olympus BX51). The images were digitally captured using a CCD camera and Magnafire 2.0 software (Olympus). Post image processing was performed in Photoshop Elements 2.0 (Adobe) and in Microsoft Powerpoint.

[4] = tested on: PC-3 prostatic adenocarcinoma cells; assay: Tumor cytotoxicity assay, resazurin fluorescence, 48 h; type: cell-based; settings: Homo sapiens, Table 1
Procedure: 10× concentrated serial dilutions of the two compounds were prepared in appropriate culture medium for final concentrations ranging from 2.0×10^−5 M to 2.0×10^−10 M. Ten μl volumes of the 10× serial dilutions were added to the test wells in triplicate and the plates returned to the incubator for 48 hours.
Resazurin dye without cells was used to determine the background, which was subtracted from the data for all experimental wells. The data were analyzed using Prism software (GraphPad Software).
PC-3, a human prostate adenocarcinoma, was maintained in F12K complete medium (F12K medium supplemented with 10% FBS; 2 mM Glutamine; 1% HEPES; and Pen/Strep at 100 IU/ml and 100 μg/ml, respectively).
20 mM stock solutions of compounds were prepared in 100% DMSO and stored at −80° C. […] Ten μl volumes of the 10× serial dilutions were added to the test wells in triplicate and the plates returned to the incubator for 48 hours.

[5] = tested on: Jurkat cells (human T cell leukemia line); assay: DNA fragmentation (DNA laddering) by gel electrophoresis; type: cell-based
Source text: A late stage characteristic of apoptosis is internucleosomal DNA cleavage that results in a distinctive ladder pattern that can be visualized by gel electrophoresis.

Trichophyton rubrum = assay: Antifungal susceptibility testing (NCCLS M38-A), MIC/MFC; type: cell-based
Procedure: Specifically, disclosed compounds were evaluated alongside commercially available microtubulin inhibitors as well as recognized antifungal agents.
(§1) Microorganisms against which these compounds were tested included: Candida albicans, Candida glabrata, Aspergillus fumigatus, Trichophyton rubrum, Trichophyton mentagrophytes, Epidermophyton floccosum. With the exception of Candida glabrata (one isolate), two isolates of each species were tested.
(§2) The minimum lethal concentration (MLC) was determined by plating […] from the MIC concentration and each concentration above the MIC. […] When a MIC was obtained, a minimum fungicidal concentration (MFC) was determined to assess the fungistatic/fungicidal nature of the compound.

[6] = tested on: Trichophyton mentagrophytes; assay: as above; type: cell-based
Procedure: (§3) Specifically, disclosed compounds were evaluated alongside commercially available microtubulin inhibitors as well as recognized antifungal agents. […].
as §1
(§4) Drug concentrations were 0.03-16 μg/ml for the investigational compounds, 0.015-8 μg/ml for itraconazole and griseofulvin.
as §2, with “compound. […] The compound is scored as fungistatic if the cells are able to resume growth and fungicidal if no regrowth is possible because the compound had killed the organisms.” for “compound.”

[7] = Physicochemical stability, Z to E migration under light; settings: visible light, normal room light
Procedure: The physicochemical stability is one of the unfavorable problems of dehydroPLH. In phenylahistin, since there is no additional olefin structure at the benzyl part, there is no such problem. […] In the cytotoxic assay, some of the compounds migrate to E-form during the incubation, although this migration probably equilibrates at the 1:1 ratio in the case of dehydroPLH. This migration can be controlled.

[8] = tested on: MES-SA/Dx5 (Taxol resistant) human uterine sarcoma; assay: Cytotoxicity / growth inhibition in multidrug resistant uterine sarcoma cells; type: cell-based; settings: for IC50: Table 13, III
Procedure: 1) Human Uterine Sarcoma Tumor Cell Line Pair: MES-SA (Taxol Sensitive) and MES-SA/Dx5 (Taxol Resistant).
HL-60 and HL-60/MX2 cells were both seeded at 5×10^4 cells/well in 90 μl complete media into 96 well plates on the day of compound addition. […] Ten μl volumes of the 10× serial dilutions were added to the test wells in triplicate and the plates returned to the incubator for 48 hours.
Resazurin dye in medium without cells was used to determine the background, which was subtracted from the data for all experimental wells.
The multidrug resistant MES-SA/Dx5 tumor cell line was derived from the human uterine sarcoma MES-SA tumor cell line and expresses elevated P-Glycoprotein (P-gp), an ATP dependent efflux pump. […] Paclitaxel, a known substrate of the P-gp pump was included as a control.

[9] = tested on: HL-60 human acute promyelocytic leukemia (Mitoxantrone-sensitive); assay: Cytotoxicity / growth inhibition in sensitive leukemia cells; type: cell-based; settings: Table 20, mean of two independent experiments, 48 hours
Procedure: (§6) HL-60 and HL-60/MX2 cells were both seeded at 5×10^4 cells/well in 90 μl complete media into 96 well plates on the day of compound addition. 20 mM stock solutions of the compounds were prepared in 100% DMSO and stored at −80° C. […] Ten μl volumes of the 10× serial dilutions were added to the test wells in triplicate and the plates returned to the incubator for 48 hours.

[10] = tested on: HL-60/MX-2 (Mitoxantrone-resistant); assay: Cytotoxicity / growth inhibition in resistant leukemia cells; type: cell-based, human
Procedure: as §6

Epidermophyton floccosum = assay: Antifungal susceptibility testing (NCCLS M38-A), MIC/MFC; type: cell-based; settings: Table 24, read-out: E. floccosum isolate #2 (column head empty, before MFC)
Procedure: as §3, §1, §4
as §2, with “compound. […] The compound is scored as fungistatic if the cells are able to resume growth and fungicidal if no regrowth is possible because the compound had killed the organisms.” for “compound.”

HuVEC monolayer = HuVEC monolayer permeability to FITC-Dextran; type: cell-based, human
Procedure: The enhanced permeability of HuVEC cells to a fluorescent-labeled dextran is used as a proxy assay for vascular collapse.
Human umbilical vein endothelial cells (HuVECs; Cambrex CC2519A) were maintained at subconfluent densities in EGM-2 (Cambrex) media. […] For monolayer permeability assays, HuVEC cells were seeded at 1×10^5 cells/ml in EGM-2 media on Fibronectin-coated 3.0 μm Fluoroblok inserts (Becton Dickinson) in 24-well plates. The plates were returned to the incubator for 4 days to allow the cells to reach confluency.
Stock solutions (20 mM) of the test compounds were prepared in 100% DMSO. 10× concentrated serial dilutions of the compounds were prepared in EGM-2. 10 μl volumes of the serial dilutions were added to the test inserts in duplicate resulting in final concentrations ranging from 2 μM to 2 nM.
The final concentration of FITC-Dextran was 1 mg/ml.

HT-29 human colon cells = assay: Tumor cytotoxicity / cell growth inhibition assay, resazurin fluorescence, 48 h; type: cell-based
Cytotoxicity, resazurin = type: cell-based; settings: human, CCD-27sk normal fibroblasts; Table 12; CCD-27sk Fibroblast
Source text: (§5) Cells were maintained at subconfluent densities in their respective culture media.

[11] = tested on: OVCAR-3 (human ovarian tumor); assay: Cytotoxicity, resazurin; type: cell-based; settings: Table 12, OVCAR-3 Ovary
Source text: as §5

[12] = tested on: poly(ADP-ribose) polymerase (PARP) in Jurkat cells; assay: Cleavage of poly(ADP-ribose) polymerase by western blotting; type: cell-based, human; settings: 100 nM, 10 hours after exposure
[13] = tested on: DU-145 human prostate tumor; assay: DU-145 Human Prostate Tumor Xenograft Model; type: in vivo, mice; settings: KPU-2 plus taxotere, treatment Days 20-27
Procedure: Selected novel compounds were administered as monotherapy via the intraperitoneal (i.p.) route at the doses indicated for the individual study; for the combination studies the selected reference chemotherapy agents were injected 15-30 min prior to the compound.
When the tumors reached ˜5 mm×5 mm (at about 13-17 days) the animals were matched into treatment and control groups. The remainder of the study proceeded as for the HT-29 model, using taxotere as the standard chemotherapy agent.
In this model unless otherwise noted for the individual study, test compounds were administered via the intraperitoneal route on Days 1, 3, 5, 8 and 11 (q3dx5); taxotere was administered intravenously on Days 1, 3 and 5 (q2dx3).

MCF-7 human breast tumor = assay: MCF-7 Human Breast Tumor Xenograft Model; type: in vivo, mice; settings: combination with taxotere
Procedure: Animals used were (exceptions are indicated for individual studies): female nude mice (nu/nu) between 5 and 6 weeks of age (˜20 g, Harlan); group size was 9-10 mice per group unless otherwise indicated.
Female nude mice (˜20 g) were implanted s.c. with 21-day release estrogen (0.25 mg) pellets 24 hours prior to the s.c. implantation with MCF-7 tumor fragments (harvested from s.c. tumors in nude mice hosts). The study then proceeded as described for the HT-29 model, using taxotere as the standard chemotherapy agent.
In this model unless otherwise noted for the individual study, the novel compounds were injected via the intraperitoneal route daily on Days 1-5, inclusive (qdx5); taxotere was administered intravenously on Days 1, 3 and 5 (qodx3).
The doses of the compounds were administered on Days 1, 2, 3, 4, and 7; Taxotere was administered on Days 1, 3 and 7.

[14] = tested on: MDA-231 human breast tumor; assay: MDA-231 Human Breast Tumor Orthotopic (mammary fat pad) Xenograft Model; type: in vivo, mice; settings: KPU-2 7.5 mg/kg ip q3dx5 with paclitaxel 16 mg/kg ip qdx5; three weeks
Procedure: The animals used were: female nude mice (nu/nu) (MDA-231 study) or B6D2F1 (B16-F10 studies) mice between 5 and 6 weeks of age (˜20 g, Harlan); group size was 10 mice per group unless otherwise indicated.
NPI compounds were administered as monotherapy via the intraperitoneal route at the doses indicated for the individual study; for the combination studies the selected reference chemotherapy agents were injected 15-30 min prior to the NPI compound.
Female nude mice were injected in the mammary fat pad with 2×10^6 MDA-231 cells harvested from in vitro cell culture. When the tumor size reached 5 mm×5 mm (about 14-28 days) the animals were matched into treatment and control groups. The study then proceeded as described for the HT-29 model, using paclitaxel as the standard chemotherapy agent.
In this model unless otherwise noted for the individual study, the test compounds were administered via the intraperitoneal route on Days 1, 4, 8, 11 and 15 (q3dx5); paclitaxel was administered via the intraperitoneal route on Days 1-5 (qdx5).
This model involves the placement of the human tumor tissue into the mouse mammary fat pad, a surrogate of the natural environment. In this manner the possibility of a positive effect due to a specific action on the subcutaneous vascular bed is avoided.

[15] = tested on: human prostate tumor cells; assay: Induction of apoptosis, morphological changes; type: cell-based
Source text: The characteristic signs of apoptotic cell death include cell membrane blebbing, disruption of nuclei, cell shrinkage and condensation and finally cell death, very distinctive from necrotic cell death. […] A similar finding was also clear in the treatment of HuVEC cells with KPU-2.

[16] = tested on: panel of 60 different kinases; settings: ATP 10 μM; four kinases

**Q.** For `CC(C)(C)c1[nH]cnc1/C=c1\[nH]c(=O)/c(=C/c2ccccc2)[nH]c1=O` [KPU-02], which “tolerability” value ([1]; i.v. infusion 5-10 mg/kg) is on record?
**A.** well tolerated

**Q.** What about the “effect on tumor vasculature” value ([1]; single i.v. treatment) of the same compound?
**A.** rapid collapse of the central vasculature

**Q.** What about the “tumor blood flow, % of vehicle” value ([2]; 1 hour after administration) of the same compound?
**A.** 23%

**Q.** And the “tumor blood flow, % vehicle” value ([2]; 24 hours)?
**A.** 59%

**Q.** What about the “tumor necrosis” value (P22 rat sarcoma) of the same compound?
**A.** dose-dependent tumor necrosis

**Q.** And the “effect on MT dynamic instability” value [3]?
**A.** did not have a measurable effect on MT dynamic instability

**Q.** What about the “tubulin depolymerization in HuVEC cells” value (HuVEC cells; 200 nM, 30 min) of the same compound?
**A.** rapidly induce tubulin depolymerization

**Q.** Which EC50 [4] does the source give for `C=CC(C)(C)c1[nH]cnc1/C=c1\[nH]c(=O)/c(=C/c2ccccc2)[nH]c1=O` [KPU-1, Dehydrophenylahistin] here?
**A.** 5.4 nM

**Q.** What about the “DNA laddering, potency compared with KPU-2” value [5] of the same compound?
**A.** much less potent

**Q.** And the “potency versus T. rubrum” value (Trichophyton rubrum)?
**A.** significantly less potent than the other compounds

**Q.** And the “potency versus sensitive T. mentagrophytes isolate” value [6]?
**A.** weaker but more comparable to the others

**Q.** Which “Z to E migration” value [7] does the source give for `C=CC(C)(C)c1[nH]cnc1/C=c1\[nH]c(=O)/c(=C/c2ccccc2)[nH]c1=O` [dehydroPLH, dehydrophenylahistin] here?
**A.** Z to E migration frequently occurs

**Q.** With `O=C1c2c(O)ccc(O)c2C(=O)c2c(NCCNCCO)ccc(NCCNCCO)c21` [mitoxantrone, Mitoxantrone] as the compound, how does the “reduced susceptibility of MES-SA/DX5 cell line” value ([8]; versus MES-SA) read?
**A.** 20 fold

**Q.** And the EC50 [9]?
**A.** 42 nM

**Q.** What about the EC50 ([10]; Homo sapiens, HL60/MX2, Table 20, mean of two independent experiments, 48 hours) of the same compound?
**A.** 1100 nM

**Q.** And the “loss of efficacy in the resistant HL-60/MX-2 cell line” value ([10]; versus HL-60, Example 10)?
**A.** 24 fold

**Q.** What about the “times less active against resistant HL-60/MX2 cells” value ([10]; versus HL-60, Example 11) of the same compound?
**A.** ~26 times

**Q.** With `COC1=CC(=O)C[C@@H](C)[C@]12Oc1c(Cl)c(OC)cc(OC)c1C2=O` [griseofulvin, Griseofulvin] as the compound, how does the MFC (Epidermophyton floccosum) read?
**A.** 4 µg/mL (≈ 11.3 µM)

**Q.** What does the source list for `CC(=O)O[C@H]1C(=O)[C@@]2(C)[C@H]([C@H](OC(=O)c3ccccc3)[C@]3(O)C[C@H](OC(=O)[C@H](O)[C@@H](NC(=O)c4ccccc4)c4ccccc4)C(C)=C1C3(C)C)[C@]1(OC(C)=O)CO[C@@H]1C[C@@H]2O` [Taxol]?
**A.** potency in resistant MES-SA/DX5 versus sensitive MES-SA line [8]: virtually inactive; IC50 ([8]; cyclosporin A pretreatment, Study II, read-out: MES-SA/DX5 Resistant, CsA Pretreat, IC50 nM): 40 nM; IC50 ([8]; no cyclosporin A, Study I, II, read-out: MES-SA/DX5 Resistant, No CsA, IC50 nM): > 24000 nM; HuVEC monolayer permeability (HuVEC monolayer): inactive; microtubule depolymerization in HuVEC cells (HuVEC cells): did not induce microtubule depolymerization

**Q.** Which “cytotoxic activity against HT-29 cells” value (HT-29 human colon cells) does the source give for `CC(C)(C)c1[nH]cnc1/C=c1\[nH]c(=O)/c(=C/c2ccccc2)[nH]c1=O` [KPU-2, tBu-dehydrophenylahistin] here?
**A.** active in the low nanomolar range

**Q.** And the cytotoxicity at 48 h (Cytotoxicity, resazurin)?
**A.** 64.3%

**Q.** What about the IC50 [11] of the same compound?
**A.** > 20 nM

**Q.** And the “cleavage of PARP” value [12]?
**A.** induced cleavage of PARP

**Q.** What about the “apparent TGI of combination therapy” value [13] of the same compound?
**A.** > 58%

**Q.** What about the “effect on estimated tumor growth with taxotere” value (MCF-7 human breast tumor) of the same compound?
**A.** appeared to be the most effective

**Q.** And the “inhibition of tumor growth” value [14]?
**A.** significant inhibition of tumor growth in the combination therapy group

**Q.** What about the “antifungal potency compared with griseofulvin” value (Trichophyton rubrum; dermatophyte isolates) of the same compound?
**A.** equivalent in potency or in some cases more potent than griseofulvin

**Q.** And the “morphological changes of apoptosis” value [15]?
**A.** induced the typical morphological changes associated with early stages of apoptosis

**Q.** And the “IC50 against kinases inhibited >50% in primary screen” value [16]?
**A.** low micromolar range

**Q.** And the “microtubule depolymerization in HuVEC cells” value (HuVEC cells)?
**A.** induced microtubule depolymerization
